Laboratory results from patent publication US10681909B2, “Herbicidal triazoles” (FMC Corporation, priority 2014, dated 2020).

What was measured:
barnyardgrass [1] = experiment: Test A postemergence; assay type: in vivo, Echinochloa crus-galli; conditions: 0 to 100 scale (0 no effect, 100 complete control), approx. 10 d
In short: (§1)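 Loam/sand soil mix; compound in non-phytotoxic solvent + surfactant. Pre: directed soil spray right after planting seed. Post: potted plants 2–10 cm, 1–2 leaf stage, sprayed with same formulation.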

pigweed = experiment: Test A postemergence; assay type: in vivo, Amaranthus retroflexus; conditions: 0 to 100 scale (0 no effect, 100 complete control), approx. 10 d
In short: as §1

waterhemp = experiment: Test C postemergence; assay type: in vivo, Amaranthus rudis
In short: (§2)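 Pre: seeded into loam/sand, sprayed same time. Post: plants in peat moss–vermiculite mix with starter nutrients and dolomitic limestone, treated at 1- to 4-leaf stage (2 to 18 cm). Formulation: non-phytotoxic solvent blend plus surfactant.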

foxtail, giant [2] = experiment: Test C postemergence; assay type: in vivo, Setaria faberii
In short: as §2

corn [3] = experiment: Test C postemergence; assay type: in vivo, Zea mays
In short: as §2

sedge, umbrella = experiment: Test B flooded paddy test; assay type: in vivo, Cyperus difformis; conditions: 250 g ai/ha, applied to paddy water at 2-leaf stage, visual rating after 13 to 15 d, scale 0 (no effect) to 100 (complete control)
In short: (§3)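 Pots were flooded to 3 cm above the soil at treatment, and compounds were applied directly into the paddy water. That depth was held throughout. After 13 to 15 d in a greenhouse, plants were rated visually against untreated controls.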

ducksalad = experiment: Test B flooded paddy test; assay type: in vivo, Heteranthera limosa; conditions: 250 g ai/ha, applied to paddy water at 2-leaf stage, visual rating after 13 to 15 d, scale 0 (no effect) to 100 (complete control)
In short: as §3

velvetleaf = experiment: Test C postemergence; assay type: in vivo, Abutilon theophrasti
In short: as §2

foxtail, giant [4] = experiment: Test A postemergence; assay type: in vivo, Setaria faberii; conditions: 0 to 100 scale (0 no effect, 100 complete control), approx. 10 d
In short: as §1

wheat = experiment: Test A postemergence; assay type: in vivo, Triticum aestivum; conditions: 0 to 100 scale (0 no effect, 100 complete control), approx. 10 d
In short: as §1

morningglory = experiment: Test C postemergence; assay type: in vivo, Ipomoea coccinea
In short: as §2

corn [5] = experiment: Test A postemergence; assay type: in vivo, Zea mays; conditions: 0 to 100 scale (0 no effect, 100 complete control), approx. 10 d
In short: as §1

crabgrass, large = experiment: Test C postemergence; assay type: in vivo, Digitaria sanguinalis
In short: as §2

barnyardgrass [6] = experiment: Test A preemergence; assay type: in vivo, Echinochloa crus-galli; conditions: 0 to 100 scale (0 no effect, 100 complete control)
In short: as §1

kochia = experiment: Test C postemergence; assay type: in vivo, Kochia scoparia
In short: as §2

ryegrass, Italian = experiment: Test C postemergence; assay type: in vivo, Lolium multiflorum
In short: as §2

barnyardgrass [7] = experiment: Test C postemergence; assay type: in vivo, Echinochloa crus-galli
In short: as §2

barnyardgrass [8] = experiment: Test B flooded paddy test; assay type: in vivo, Echinochloa crus-galli; conditions: 250 g ai/ha, applied to paddy water at 2-leaf stage, visual rating after 13 to 15 d, scale 0 (no effect) to 100 (complete control)
In short: as §3

ragweed = experiment: Test C postemergence; assay type: in vivo, Ambrosia elatior
In short: as §2

nutsedge, yellow = experiment: Test C postemergence; assay type: in vivo, Cyperus esculentus
In short: as §2

oilseed rape = experiment: Test C postemergence; assay type: in vivo, Brassica napus
In short: as §2

SMILES: FC(F)(F)COc1nc(-c2ccc(Cl)cc2)nn1Cc1ccnc(C(F)(F)F)c1 [Compound 31]
- Plant response rating, Barnyardgrass (barnyardgrass [1]; 125 g ai/ha): 50
- Plant response rating, Barnyardgrass (barnyardgrass [1]; 500 g ai/ha): 90
- Plant response rating, Pigweed (pigweed; 125 g ai/ha): 100
- Plant response rating, Pigweed (pigweed; 500 g ai/ha): 100
- Plant response rating (scale of 0 to 100 where 0 is no effect and 100 is complete control) (waterhemp; 31 g ai/ha): 95
- Plant response rating (scale of 0 to 100 where 0 is no effect and 100 is complete control) (waterhemp; 62 g ai/ha): 98
- Plant response rating (scale of 0 to 100 where 0 is no effect and 100 is complete control) (waterhemp; 125 g ai/ha): 100
- Plant response rating (scale of 0 to 100 where 0 is no effect and 100 is complete control) (waterhemp; 250 g ai/ha): 98
- Plant response rating (scale of 0 to 100 where 0 is no effect and 100 is complete control) (foxtail, giant [2]; 31 g ai/ha): 15
- Plant response rating (scale of 0 to 100 where 0 is no effect and 100 is complete control) (foxtail, giant [2]; 62 g ai/ha): 35
- Plant response rating (scale of 0 to 100 where 0 is no effect and 100 is complete control) (foxtail, giant [2]; 125 g ai/ha): 40
- Plant response rating (scale of 0 to 100 where 0 is no effect and 100 is complete control) (foxtail, giant [2]; 250 g ai/ha): 40
- Plant response rating (scale of 0 to 100 where 0 is no effect and 100 is complete control) (corn [3]; 31 g ai/ha): 40
- Plant response rating (scale of 0 to 100 where 0 is no effect and 100 is complete control) (corn [3]; 62 g ai/ha): 20
- Plant response rating (scale of 0 to 100 where 0 is no effect and 100 is complete control) (corn [3]; 125 g ai/ha): 20
- Plant response rating (scale of 0 to 100 where 0 is no effect and 100 is complete control) (corn [3]; 250 g ai/ha): 30
- Plant response rating, Sedge, Umbrella, Flood (sedge, umbrella): 100
- Plant response rating, Ducksalad, Flood (ducksalad): 70
- Plant response rating (scale of 0 to 100 where 0 is no effect and 100 is complete control) (velvetleaf; 31 g ai/ha): 45
- Plant response rating (scale of 0 to 100 where 0 is no effect and 100 is complete control) (velvetleaf; 62 g ai/ha): 65
- Plant response rating (scale of 0 to 100 where 0 is no effect and 100 is complete control) (velvetleaf; 125 g ai/ha): 65
- Plant response rating (scale of 0 to 100 where 0 is no effect and 100 is complete control) (velvetleaf; 250 g ai/ha): 75
- Plant response rating, Foxtail, Giant (foxtail, giant [4]; 125 g ai/ha): 80
- Plant response rating, Foxtail, Giant (foxtail, giant [4]; 500 g ai/ha): 90
- Plant response rating, Wheat (wheat; 125 g ai/ha): 30
- Plant response rating, Wheat (wheat; 500 g ai/ha): 40
- Plant response rating (scale of 0 to 100 where 0 is no effect and 100 is complete control) (morningglory; 31 g ai/ha): 95
- Plant response rating (scale of 0 to 100 where 0 is no effect and 100 is complete control) (morningglory; 62 g ai/ha): 60
- Plant response rating (scale of 0 to 100 where 0 is no effect and 100 is complete control) (morningglory; 125 g ai/ha): 75
- Plant response rating (scale of 0 to 100 where 0 is no effect and 100 is complete control) (morningglory; 250 g ai/ha): 100
- Plant response rating, Corn (corn [5]; 125 g ai/ha): 20
- Plant response rating, Corn (corn [5]; 500 g ai/ha): 30
- Plant response rating (scale of 0 to 100 where 0 is no effect and 100 is complete control) (crabgrass, large; 31 g ai/ha): 20
- Plant response rating (scale of 0 to 100 where 0 is no effect and 100 is complete control) (crabgrass, large; 62 g ai/ha): 35
- Plant response rating (scale of 0 to 100 where 0 is no effect and 100 is complete control) (crabgrass, large; 125 g ai/ha): 60
- Plant response rating (scale of 0 to 100 where 0 is no effect and 100 is complete control) (crabgrass, large; 250 g ai/ha): 80
- Plant response rating, Barnyardgrass (barnyardgrass [6]; 125 g ai/ha): 90
- Plant response rating, Barnyardgrass (barnyardgrass [6]; 500 g ai/ha, approx. 10 d): 90
- Plant response rating (scale of 0 to 100 where 0 is no effect and 100 is complete control) (kochia; 31 g ai/ha): 90
- Plant response rating (scale of 0 to 100 where 0 is no effect and 100 is complete control) (kochia; 62 g ai/ha): 90
- Plant response rating (scale of 0 to 100 where 0 is no effect and 100 is complete control) (kochia; 125 g ai/ha): 90
- Plant response rating (scale of 0 to 100 where 0 is no effect and 100 is complete control) (kochia; 250 g ai/ha): 90
- Plant response rating (scale of 0 to 100 where 0 is no effect and 100 is complete control) (ryegrass, Italian; 31 g ai/ha): 20
- Plant response rating (scale of 0 to 100 where 0 is no effect and 100 is complete control) (ryegrass, Italian; 62 g ai/ha): 30
- Plant response rating (scale of 0 to 100 where 0 is no effect and 100 is complete control) (ryegrass, Italian; 125 g ai/ha): 40
- Plant response rating (scale of 0 to 100 where 0 is no effect and 100 is complete control) (ryegrass, Italian; 250 g ai/ha): 65
- Plant response rating (scale of 0 to 100 where 0 is no effect and 100 is complete control) (barnyardgrass [7]; 31 g ai/ha): 35
- Plant response rating (scale of 0 to 100 where 0 is no effect and 100 is complete control) (barnyardgrass [7]; 62 g ai/ha): 35
- Plant response rating (scale of 0 to 100 where 0 is no effect and 100 is complete control) (barnyardgrass [7]; 125 g ai/ha): 45
- Plant response rating (scale of 0 to 100 where 0 is no effect and 100 is complete control) (barnyardgrass [7]; 250 g ai/ha): 75
- Plant response rating, Barnyardgrass, Flood (barnyardgrass [8]): 40
- Plant response rating (scale of 0 to 100 where 0 is no effect and 100 is complete control) (ragweed; 31 g ai/ha): 70
- Plant response rating (scale of 0 to 100 where 0 is no effect and 100 is complete control) (ragweed; 62 g ai/ha): 75
- Plant response rating (scale of 0 to 100 where 0 is no effect and 100 is complete control) (ragweed; 125 g ai/ha): 85
- Plant response rating (scale of 0 to 100 where 0 is no effect and 100 is complete control) (ragweed; 250 g ai/ha): 100
- Plant response rating (scale of 0 to 100 where 0 is no effect and 100 is complete control) (nutsedge, yellow; 31 g ai/ha): 20
- Plant response rating (scale of 0 to 100 where 0 is no effect and 100 is complete control) (nutsedge, yellow; 62 g ai/ha): 30
- Plant response rating (scale of 0 to 100 where 0 is no effect and 100 is complete control) (nutsedge, yellow; 125 g ai/ha): 30
- Plant response rating (scale of 0 to 100 where 0 is no effect and 100 is complete control) (nutsedge, yellow; 250 g ai/ha): 35
- Plant response rating (scale of 0 to 100 where 0 is no effect and 100 is complete control) (oilseed rape; Oilsee Rape, 250 g ai/ha): 90
- Plant response rating (scale of 0 to 100 where 0 is no effect and 100 is complete control) (oilseed rape; Oilseed Rape, 31 g ai/ha): 85
- Plant response rating (scale of 0 to 100 where 0 is no effect and 100 is complete control) (oilseed rape; Oilseed Rape, 62 g ai/ha): 90
- Plant response rating (scale of 0 to 100 where 0 is no effect and 100 is complete control) (oilseed rape; Oilseed Rape, 125 g ai/ha): 85
